Measurements from patent US20150246938A1, “NOVEL OLEFIN DERIVATIVE” (SHIONOGI & CO., LTD., priority 2011, published 2015).

Target: T1, recombinant human ACC2 (Homo sapiens, UniProt O00763)
T1 construct: a cDNA encoding human ACC2 (27-2458) was cloned from human kidney cDNA library (Clontech); His-tag (N); made in house; host or cells: Sf-9 insect cells (Bac-to-Bac baculovirus)
Assay: Measurement of inhibitory activity on human ACC2 (MALDI-TOF MS, acetyl CoA to malonyl CoA conversion)
Format: biochemical
Conditions: inhibition activity on human ACC2, Table 82; read-out: IC50

T1 sequence (O00763 27-2458): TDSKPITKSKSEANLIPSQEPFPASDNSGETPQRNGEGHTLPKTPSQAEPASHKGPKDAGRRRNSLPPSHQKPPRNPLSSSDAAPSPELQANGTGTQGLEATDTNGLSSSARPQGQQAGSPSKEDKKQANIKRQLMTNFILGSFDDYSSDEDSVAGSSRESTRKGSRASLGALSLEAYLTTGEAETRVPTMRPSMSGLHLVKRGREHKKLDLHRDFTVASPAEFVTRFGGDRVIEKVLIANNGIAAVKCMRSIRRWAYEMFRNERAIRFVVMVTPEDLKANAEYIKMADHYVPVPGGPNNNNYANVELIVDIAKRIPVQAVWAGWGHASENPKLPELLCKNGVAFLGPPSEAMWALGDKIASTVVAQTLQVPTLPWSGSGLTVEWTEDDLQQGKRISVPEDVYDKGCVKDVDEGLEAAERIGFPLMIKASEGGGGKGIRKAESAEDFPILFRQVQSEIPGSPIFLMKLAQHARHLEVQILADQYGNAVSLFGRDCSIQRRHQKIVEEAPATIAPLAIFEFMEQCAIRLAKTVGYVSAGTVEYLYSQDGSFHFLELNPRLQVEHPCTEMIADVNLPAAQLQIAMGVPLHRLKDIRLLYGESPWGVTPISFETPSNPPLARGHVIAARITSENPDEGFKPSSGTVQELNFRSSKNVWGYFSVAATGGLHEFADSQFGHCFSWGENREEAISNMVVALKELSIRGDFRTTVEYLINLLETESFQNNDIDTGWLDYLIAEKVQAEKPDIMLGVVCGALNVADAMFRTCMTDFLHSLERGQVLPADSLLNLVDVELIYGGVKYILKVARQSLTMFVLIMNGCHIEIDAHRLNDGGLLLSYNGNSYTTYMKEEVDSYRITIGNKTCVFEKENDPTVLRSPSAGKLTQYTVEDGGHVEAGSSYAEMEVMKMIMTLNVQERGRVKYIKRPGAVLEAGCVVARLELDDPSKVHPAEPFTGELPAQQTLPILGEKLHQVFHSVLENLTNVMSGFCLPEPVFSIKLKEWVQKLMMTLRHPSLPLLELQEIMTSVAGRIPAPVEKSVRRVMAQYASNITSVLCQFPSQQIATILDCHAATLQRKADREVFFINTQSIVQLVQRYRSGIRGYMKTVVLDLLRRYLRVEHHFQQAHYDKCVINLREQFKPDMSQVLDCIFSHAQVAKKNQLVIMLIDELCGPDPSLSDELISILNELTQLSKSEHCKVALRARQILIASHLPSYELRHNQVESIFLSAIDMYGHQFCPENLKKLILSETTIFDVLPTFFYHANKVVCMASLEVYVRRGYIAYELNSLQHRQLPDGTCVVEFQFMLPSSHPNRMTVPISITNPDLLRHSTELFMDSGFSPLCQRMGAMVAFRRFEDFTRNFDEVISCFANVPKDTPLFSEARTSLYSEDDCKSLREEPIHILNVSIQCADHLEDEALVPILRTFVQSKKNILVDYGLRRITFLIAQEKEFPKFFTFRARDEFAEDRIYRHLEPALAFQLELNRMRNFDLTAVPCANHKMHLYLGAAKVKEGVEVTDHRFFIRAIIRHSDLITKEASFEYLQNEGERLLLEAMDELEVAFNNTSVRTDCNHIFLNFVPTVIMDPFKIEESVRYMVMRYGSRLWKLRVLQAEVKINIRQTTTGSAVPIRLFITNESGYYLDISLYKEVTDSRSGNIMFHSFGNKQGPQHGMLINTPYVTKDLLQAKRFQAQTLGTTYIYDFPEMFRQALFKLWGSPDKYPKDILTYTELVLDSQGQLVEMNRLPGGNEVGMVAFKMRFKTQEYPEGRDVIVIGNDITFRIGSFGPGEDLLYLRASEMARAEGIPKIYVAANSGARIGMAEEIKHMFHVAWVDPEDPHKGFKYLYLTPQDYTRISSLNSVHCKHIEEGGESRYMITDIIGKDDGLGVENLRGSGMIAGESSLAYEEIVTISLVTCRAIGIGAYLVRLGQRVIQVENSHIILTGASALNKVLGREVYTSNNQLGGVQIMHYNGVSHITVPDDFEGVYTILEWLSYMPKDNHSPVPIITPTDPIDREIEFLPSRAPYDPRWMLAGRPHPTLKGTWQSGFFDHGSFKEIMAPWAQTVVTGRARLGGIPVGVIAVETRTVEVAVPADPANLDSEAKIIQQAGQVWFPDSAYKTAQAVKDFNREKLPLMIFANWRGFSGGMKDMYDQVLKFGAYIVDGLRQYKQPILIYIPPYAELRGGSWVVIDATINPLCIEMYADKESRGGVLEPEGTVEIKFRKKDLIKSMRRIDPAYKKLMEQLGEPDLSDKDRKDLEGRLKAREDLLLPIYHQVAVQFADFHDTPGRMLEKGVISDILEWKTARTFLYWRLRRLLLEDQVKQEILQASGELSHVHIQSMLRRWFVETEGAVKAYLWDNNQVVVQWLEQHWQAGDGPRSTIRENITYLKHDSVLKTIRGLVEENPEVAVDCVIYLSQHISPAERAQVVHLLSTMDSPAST

SMILES | IC50 [nM]
CCNC(=O)c1cc(C(=O)N[C@@H](C)/C=C/c2cnn(Cc3ccc(OCC4CC4)cc3F)c2)ccn1 [Compound I-318] | 67
CCNC(=O)c1cc(C(=O)N[C@@H](C)/C=C/c2cnn(Cc3c(F)cc(OCC4CC4)cc3F)c2)ccn1 [Compound I-319] | 51
CCNC(=O)c1cc(C(=O)N[C@@H](C)/C=C/c2cnn(Cc3c(Cl)cc(OCC4CC4)cc3Cl)c2)ccn1 [Compound I-321] | 29
CCCc1ccc(Oc2ccc(/C=C/[C@H](C)NC(C)=O)cn2)c(C)n1 [Compound I-322] | 490
CCCc1cc(C)c(Oc2ccc(/C=C/[C@H](C)NC(C)=O)cn2)cn1 [Compound I-323] | 960
CCCc1ccc(Oc2ncc(/C=C/[C@H](C)NC(C)=O)cn2)cc1Cl [Compound I-324] | 170
CC(=O)N[C@@H](C)/C=C/c1ccc(Oc2ccc(-c3ccccn3)cc2Cl)nc1 [Compound I-325] | 120
CC(=O)N[C@@H](C)/C=C/c1ccc(Oc2ccc(-c3cccnc3)cc2Cl)nc1 [Compound I-326] | 440
CC(=O)N[C@@H](C)/C=C/c1ccc(Oc2ccc(C(C)=O)cc2Cl)nc1 [Compound I-327] | 340
CC(=O)N[C@@H](C)/C=C/c1ccc(Oc2ccc(C(C)(F)F)cc2Cl)nc1 [Compound I-328] | 35
CC(=O)N[C@@H](C)/C=C/c1ccc(Oc2ccc(C(C)O)cc2Cl)nc1 (some centres unmarked) [Compound I-329] | 1100
CCCc1cccc(Oc2ccc(/C=C/[C@H](C)NC(C)=O)cn2)n1 [Compound I-330] | 3900
CC(=O)N[C@@H](C)/C=C/c1ccc(Oc2ccc(OS(=O)(=O)C(F)(F)F)cc2Cl)nc1 [Compound I-331] | 130
CC(=O)N[C@@H](C)/C=C/c1ccc(Oc2ccc(C(C)F)cc2Cl)nc1 (some centres unmarked) [Compound I-332] | 92
CO/N=C(\C)c1ccc(Oc2ccc(/C=C/[C@H](C)NC(C)=O)cn2)c(Cl)c1 [Compound I-333] | 180
CCOc1ccc(Oc2ncc(/C=C/[C@H](C)NC(C)=O)cc2Cl)c(Cl)c1 [Compound I-334] | 47
CC(=O)N[C@@H](C)/C=C/c1cnc(Oc2ccc(OCC3CC3)cc2Cl)c(Cl)c1 [Compound I-335] | 15
CCCc1ccc(Oc2ccc(/C=C/[C@H](C)NC(C)=O)cn2)nc1 [Compound I-336] | 2000
CCCCc1ccc(Oc2ccc(/C=C/[C@H](C)NC(C)=O)cn2)c(Cl)c1 [Compound I-337] | 23
CC(=O)N[C@@H](C)/C=C/c1ccc(Oc2ccc(Cl)c(Cl)c2)nc1 [Compound I-338] | 33
CCc1ccc(Oc2ccc(/C=C/[C@H](C)NC(C)=O)cn2)c(Cl)c1 [Compound I-339] | 91
CC(=O)N[C@@H](C)/C=C/c1cnc(Oc2ccc(OCC3CC3)cc2Cl)n1C [Compound I-341] | 450
CC(=O)N[C@@H](C)/C=C/c1ccc(Oc2ccc(-c3ccccc3C)cc2Cl)nc1 [Compound I-342] | 120
CC(=O)N[C@@H](C)/C=C/c1ccc(Oc2ccc(-c3cccc(C)c3)cc2Cl)nc1 [Compound I-343] | 46

SMILES | IC50 [nM]
CC(=O)N[C@@H](C)/C=C/c1ccc(Oc2ccc(-c3ccc(C)cc3)cc2Cl)nc1 [Compound I-344] | 51
CC(=O)N[C@@H](C)/C=C/c1ccc(Oc2ccc(-c3ccc(C#N)cc3)cc2Cl)nc1 [Compound I-345] | 52
CC(=O)N[C@@H](C)/C=C/c1ccc(Oc2ccc(-c3cccc(C#N)c3)cc2Cl)nc1 [Compound I-346] | 440
CC(=O)N[C@@H](C)/C=C/c1ccc(Oc2ccc(-c3ccccc3C#N)cc2Cl)nc1 [Compound I-347] | 300
COc1ccc(-c2ccc(Oc3ccc(/C=C/[C@H](C)NC(C)=O)cn3)c(Cl)c2)cn1 [Compound I-348] | 210
CC(=O)N[C@@H](C)/C=C/c1ccc(Oc2ccc(-c3cnoc3)cc2Cl)nc1 [Compound I-349] | 6600
CC(=O)N[C@@H](C)/C=C/c1ccc(Oc2ccc(C3=CCCCC3)cc2Cl)nc1 [Compound I-350] | 18
CC(=O)N[C@@H](C)/C=C/c1ccc(Oc2ccc(C3=CCCC3)cc2Cl)nc1 [Compound I-351] | 42
CC(=O)N[C@@H](C)/C=C/c1ccc(Oc2ccc(C3=CCOCC3)cc2Cl)nc1 [Compound I-352] | 240
CC(=O)N[C@@H](C)/C=C/c1ccc(Oc2ccc(C3=CCN(C)CC3)cc2Cl)nc1 [Compound I-353] | 2600
CC(=O)N[C@@H](C)/C=C/c1ccc(Oc2ccc(C3=CC(C)(C)OC(C)(C)C3)cc2Cl)nc1 [Compound I-354] | 170
CC(=O)N[C@@H](C)/C=C/c1ccc(Oc2ccc(C3=CCC4(CC3)CC4)cc2Cl)nc1 [Compound I-355] | 19
CCOc1ccc(NCc2ccc(/C=C/[C@H](C)NC(C)=O)cn2)cc1 [Compound I-356] | 5400
CC(=O)N[C@@H](C)/C=C/c1ccc(Oc2ccc(C(=O)NCC3CC3)cc2Cl)nc1 [Compound I-357] | 440
CC(=O)N[C@@H](C)/C=C/c1ccc(Oc2ccc(Cc3ccccc3)cc2Cl)nc1 [Compound I-358] | 27
CCC(O)c1ccc(Oc2ccc(/C=C/[C@H](C)NC(C)=O)cn2)c(Cl)c1 (some centres unmarked) [Compound I-359] | 230
CCSc1ccc(Oc2ccc(/C=C/[C@H](C)NC(C)=O)cn2)c(Cl)c1 [Compound I-360] | 9.1
CCOc1cc(F)c(Oc2ccc(/C=C/[C@H](C)NC(C)=O)cn2)c(Cl)c1 [Compound I-361] | 36
CCS(=O)(=O)c1ccc(Oc2ccc(/C=C/[C@H](C)NC(C)=O)cn2)c(Cl)c1 [Compound I-362] | 350
CC(=O)N[C@@H](C)/C=C/c1ccc(Oc2ccc(CC(C)C)cc2Cl)nc1 [Compound I-363] | 29
CC(=O)N[C@@H](C)/C=C/c1ccc(Oc2ccc(SCC(C)C)cc2Cl)nc1 [Compound I-364] | 13
CCOc1ccc(Oc2ccc(/C=C(\F)C(C)NC(C)=O)cn2)c(Cl)c1 (centres unmarked) [Compound I-365] | 10
CC(=O)NC(C)/C(F)=C/c1ccc(Oc2ccc(OCC3CC3)cc2Cl)nc1 (centres unmarked) [Compound I-366] | 15
CC(=O)N[C@@H](C)/C=C/c1ccc(Oc2ccc(S(=O)(=O)CC(C)C)cc2Cl)nc1 [Compound I-367] | 140

Same assay, conditions: inhibition activity on human ACC2, untitled table (Table 81); read-out: IC50

SMILES | IC50 [nM]
CC(=O)N[C@@H](C)/C=C/c1cnc(Oc2ccc(NC(=O)CC(C)C)c(Cl)c2)nc1 [Compound I-284] | 860
CC(=O)N[C@@H](C)/C=C/c1cnc(Oc2ccc(NC3CCCC3)c(Cl)c2)nc1 [Compound I-285] | 96
CCOc1ccc(Oc2cnc(/C=C/[C@H](C)NC(C)=O)cn2)c(Cl)c1 [Compound I-286] | 48
CC(=O)N[C@@H](C)/C=C/c1ccc(Oc2ccc(CCC3CC3)cc2Cl)nc1 [Compound I-287] | 18
CCN(CC)c1ccc(Oc2ccc(/C=C/[C@H](C)NC(C)=O)cn2)c(Cl)c1 [Compound I-288] | 36
CC(=O)N[C@@H](C)/C=C/c1ccc(Oc2ccc(Br)c(Cl)c2)nc1 [Compound I-289] | 28
CC(=O)NC(C)(C)/C(C)=C/c1ccc(Oc2ccc(OCC3CC3)cc2Cl)nc1 [Compound I-290] | 600
CC(=O)N[C@@H](C)/C=C/c1cnc(Oc2ccc(OCC3CC3)c(Cl)c2)cn1 [Compound I-291] | 18
CC(=O)N[C@@H](C)/C=C/c1cnn(Cc2cc(F)c(OCC3CC3)cc2F)c1 [Compound I-292] | 1600
CC(=O)N[C@@H](C)/C=C/c1ccc(Oc2cncc(OCC3CC3)c2)nc1 [Compound I-293] | 1300
CCCc1ncc(Oc2ccc(/C=C/[C@H](C)NC(C)=O)cn2)cc1Cl [Compound I-294] | 150
CC/C(=C\c1ccc(Oc2cnc(OCC3CC3)cc2Cl)nc1)C(C)NC(C)=O (centres unmarked) [Compound I-295] | 2800
COCCOc1ccc(Oc2ccc(/C=C/[C@H](C)NC(C)=O)cn2)c(Cl)c1 [Compound I-296] | 110
CC(=O)N[C@@H](C)/C=C/c1ccc(Oc2ccc(C3CC3)c(Cl)c2)nc1 [Compound I-298] | 58
CCOc1ccc(Oc2cnc(/C=C/[C@H](C)NC(C)=O)cn2)cc1Cl [Compound I-299] | 38
CC(=O)N[C@@H](C)/C=C/c1ccc(Oc2cncc(OC(C)C)c2)nc1 [Compound I-301] | 1900
CCCc1cncc(Oc2ccc(/C=C/[C@H](C)NC(C)=O)cn2)c1 [Compound I-302] | 510
CC(=O)N[C@@H](C)/C=C/c1ccc(Oc2ccc(OCCOC3CCCCO3)cc2Cl)nc1 (some centres unmarked) [Compound I-303] | 630
CC(=O)N[C@@H](C)/C=C/c1ccc(Oc2ccc(OCCO)cc2Cl)nc1 [Compound I-304] | 1400
CCCc1ccc(Oc2ccc(/C=C/[C@H](C)NC(C)=O)cn2)cc1Cl [Compound I-305] | 11
CCCc1ccc(Oc2ccc(/C=C/[C@H](C)NC(C)=O)cn2)cc1 [Compound I-306] | 24
CCNC(=O)c1cc(C(=O)N[C@@H](C)/C=C/c2cnn(Cc3ccc(Oc4ccccc4)cc3)c2)ccn1 [Compound I-307] | 48
CCNC(=O)c1cc(C(=O)N[C@@H](C)/C=C/c2cnn(Cc3ccc(OC(F)(F)F)cc3)c2)ccn1 [Compound I-308] | 480
CCNC(=O)c1cc(C(=O)N[C@@H](C)/C=C/c2cnn(Cc3ccc(F)c(C(F)(F)F)c3)c2)ccn1 [Compound I-309] | 2800
CCNC(=O)c1cc(C(=O)N[C@@H](C)/C=C/c2cnn(Cc3ccc(Cl)c(Cl)c3)c2)ccn1 [Compound I-310] | 1300
CCNC(=O)c1cc(C(=O)N[C@@H](C)/C=C/c2cnn(Cc3ccc(C(C)C)cc3)c2)ccn1 [Compound I-312] | 570
CCNC(=O)c1cc(C(=O)N[C@@H](C)/C=C/c2cnn(Cc3ccc(F)c(Cl)c3)c2)ccn1 [Compound I-314] | 960
CCNC(=O)c1cc(C(=O)N[C@@H](C)/C=C/c2cnn(Cc3c(C)cc(C)cc3C)c2)ccn1 [Compound I-315] | 3900
CCNC(=O)c1cc(C(=O)N[C@@H](C)/C=C/c2cnn(Cc3ccc(OC)cc3Cl)c2)ccn1 [Compound I-317] | 350
